This note sets out measurements from patent publication US20240218022A1, “ANTI-VISTA MACROCYCLIC PEPTIDES AND COMPOSITIONS” (BRISTOL-MYERS SQUIBB COMPANY, priority 2022, published 2024).

As usually defined, the IC50 is the midpoint of a concentration-inhibition curve.

This assay concerns the target T1, mouse VISTA (mVISTA) (Mus musculus, UniProt Q9D659).
T1 construct: expressed in transfected cells; host or cells: Human embryonic kidney 293T cells
T1 sequence (Q9D659 33-308): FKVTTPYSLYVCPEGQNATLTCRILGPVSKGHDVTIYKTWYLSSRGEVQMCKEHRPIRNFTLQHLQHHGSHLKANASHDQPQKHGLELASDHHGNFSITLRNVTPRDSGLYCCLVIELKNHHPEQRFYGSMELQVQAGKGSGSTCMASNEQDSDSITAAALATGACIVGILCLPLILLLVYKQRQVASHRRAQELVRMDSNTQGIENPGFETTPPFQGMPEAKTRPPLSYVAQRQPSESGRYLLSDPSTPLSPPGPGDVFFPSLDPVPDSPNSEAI
In words: Cell-Based Binding High-Content Assay For mVISTA (HC CBA mVISTA). Summed up:
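Read-out: Alexa 647–streptavidin signal imaged on fixed, Hoechst-stained mVISTA-293T cells, with IC50 taken from a four-parameter logistic curve. Compounds competed with 2 nM biotinylated peptide for 30 min at room temperature, tested under both no-wash and wash (1 h compound, media exchange, 1 h) formats.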

The mark [1] stands for this setting: 293T cells expressing mouse VISTA, competition with biotinylated peptide (2 nM), read-out: HC CBA mVISTA IC50.

Read-outs that look alike come from different tables or passages of the source. Starred links: 1 amine or outer side, 2 acyl side, 3 side chain; linkers in the order of their positions; H or OH if unused. Positions of bridges follow the written chain, without caps; N, C: chain ends. Non-standard residues stand in square brackets, D forms with d. Residues, ends and D or L forms follow the SMILES beside them. Phe(2,4-F2) = N[C@@H](Cc1ccc(F)cc1F)C(=O)O; Morpholine(3S-CO) = O=C(O)[C@@H]1COCCN1; Phe(3-Me) = Cc1cccc(C[C@H](N)C(=O)O)c1; 2Nal = N[C@@H](Cc1ccc2ccccc2c1)C(=O)O; βAsp = O=C(O)[C@H](CC(=O)[*:2])N[*:1]; NMeL = CN[C@@H](CC(C)C)C(=O)O; Ahp(2) = CCCCC[C@H](N)C(=O)O; NMeNle = CCCC[C@H](NC)C(=O)O; Tle = CC(C)(C)[C@H](N)C(=O)O; NHexGly = CCCCCCNCC(=O)O; Nle = CCCC[C@H](N)C(=O)O; Orn = NCCC[C@H](N)C(=O)O; Aun = NCCCCCCCCCCC(=O)O; Dap = NC[C@H](N)C(=O)O; AEEA = NCCOCCOCC(=O)O

With `CCCCCCN1CC(=O)N[C@@H](Cc2ccc(O)cc2)C(=O)N[C@@H](CCCC)C(=O)N[C@@H](CC(N)=O)C(=O)N[C@@H](CCCNC(=N)N)C(=O)N(C)[C@@H](CCCC)C(=O)N[C@@H](CCCCC)C(=O)N(C)[C@@H](CC(C)C)C(=O)N[C@@H](C(C)(C)C)C(=O)N[C@@H](CO)C(=O)N[C@H](C(=O)N[C@@H](CC(=O)NCCOCCOCC(=O)NCCCCCCCCCCC(=O)O)C(=O)O)CSCC(=O)N[C@@H](Cc2ccccc2)C(=O)N[C@@H](Cc2c[nH]c3ccccc23)C(=O)N[C@@H](CC(=O)O)C1=O` [Example 2179] ({CH2CO}-FWD[NHexGly]Y[Nle]NR[NMeNle][Ahp(2)][NMeL][Tle]SC[βAsp][AEEA][Aun]-OH; thioether N-14), where the note is “read-out: HC CBA mVISTA IC50”, the half-maximal inhibitory concentration (IC50) worked out at 30.2 nM.

On to `CCCCCCN1CC(=O)N[C@@H](Cc2ccc(O)cc2)C(=O)N[C@@H](CCCCC)C(=O)NCC(=O)N[C@@H](CCCNC(=N)N)C(=O)N[C@@H](CC(C)C)C(=O)N[C@@H](CCCCC)C(=O)N2CCC[C@H]2C(=O)N[C@@H](C(C)C)C(=O)N[C@@H](CO)C(=O)N[C@H](C(=O)NCC(N)=O)CSCC(=O)N[C@@H](Cc2ccccc2)C(=O)N[C@@H](Cc2ccccc2)C(=O)N[C@@H](CC(=O)O)C1=O` [compound 1325] ({CH2CO}-FFD[NHexGly]Y[Ahp(2)]GRL[Ahp(2)]PVSCG-NH2; thioether N-14), for which the IC50 (read-out: HC CBA mVISTA IC50) came out at 24.3 nM. `CCCCCCN1CC(=O)N[C@@H](Cc2ccc(O)cc2)C(=O)N[C@@H](CCCC)C(=O)N[C@@H](CC(N)=O)C(=O)N[C@@H](CCCNC(=N)N)C(=O)N[C@@H](CC(C)C)C(=O)N[C@@H](CCCCC)C(=O)N2CCC[C@H]2C(=O)N[C@@H](C(C)C)C(=O)N[C@@H](CC(=O)O)C(=O)N[C@H](C(=O)NCC(=O)NCCOCCOCC(=O)N[C@@H](CC(=O)O)C(=O)NCCOCCOCC(=O)NCCCCCCCCCCC(=O)O)CSCC(=O)N[C@@H](Cc2cccc(C)c2)C(=O)N[C@@H](Cc2c[nH]c3ccccc23)C(=O)N[C@@H](CC(=O)O)C1=O` [compound 2008] ({CH2CO}-[Phe(3-Me)]WD[NHexGly]Y[Nle]NRL[Ahp(2)]PVDCG[AEEA]D[AEEA][Aun]-OH; thioether N-14): for the setting “cell-based binding high-content assay, mVISTA, read-out: HC CBA miPr ISTA IC50”, the IC50 is 16.1 nM.

Regarding `CCCCCCN1CC(=O)N[C@@H](Cc2ccc(O)cc2)C(=O)N[C@@H](CCCC)C(=O)N[C@@H](CC(N)=O)C(=O)N[C@@H](CCCNC(=N)N)C(=O)N(C)[C@@H](CCCC)C(=O)N[C@@H](CCCCC)C(=O)N2CCC[C@H]2C(=O)N[C@@H](C(C)C)C(=O)N[C@@H](CC(=O)O)C(=O)N[C@H](C(=O)N[C@@H](CN)C(=O)N[C@@H](CCC(N)=O)C(=O)O)CSCC(=O)N[C@@H](Cc2ccc3ccccc3c2)C(=O)N[C@@H](Cc2c[nH]c3ccccc23)C(=O)N[C@@H](CC(=O)O)C1=O` [compound 1135] ({CH2CO}-[2Nal]WD[NHexGly]Y[Nle]NR[NMeNle][Ahp(2)]PVDC[Dap]Q-OH; thioether N-14), the concentration for half-maximal inhibition (IC50) (read-out: HC CBA mVISTA IC50) came out at 39.1 nM. The same measure, in the same setting: then `CCCCCCN1CC(=O)N[C@@H](Cc2ccc(O)cc2)C(=O)N[C@@H](CCCCC)C(=O)N[C@@H](CC(N)=O)C(=O)N[C@@H](CCCNC(=N)N)C(=O)N(C)[C@@H](CCCC)C(=O)N[C@@H](CCCCC)C(=O)N2CCC[C@H]2C(=O)N[C@@H](C(C)C)C(=O)N[C@@H](CC(=O)O)C(=O)N[C@H](C(=O)NCC(=O)O)CSCC(=O)N[C@@H](Cc2ccc3ccccc3c2)C(=O)N[C@@H](Cc2ccc(F)cc2F)C(=O)N[C@@H](CC(=O)O)C1=O` [compound 1201] ({CH2CO}-[2Nal][Phe(2,4-F2)]D[NHexGly]Y[Ahp(2)]NR[NMeNle][Ahp(2)]PVDCG-OH; thioether N-14), with 11.9 nM. `CCCCCCN1CC(=O)N[C@@H](Cc2ccc(O)cc2)C(=O)N[C@@H](CCCC)C(=O)N[C@@H](CC(=O)O)C(=O)N[C@@H](CCCNC(=N)N)C(=O)N(C)[C@@H](CCCC)C(=O)N[C@@H](CCCCC)C(=O)N2CCC[C@H]2C(=O)N[C@@H](C(C)C)C(=O)N[C@@H](CC(=O)O)C(=O)N[C@H](C(=O)N[C@@H](CC(=O)O)C(N)=O)CSCC(=O)N[C@@H](Cc2ccc3ccccc3c2)C(=O)N[C@@H](Cc2ccc(O)cc2)C(=O)N[C@@H](CC(=O)O)C1=O` [Ex 1266] ({CH2CO}-[2Nal]YD[NHexGly]Y[Nle]DR[NMeNle][Ahp(2)]PVDCD-NH2; thioether N-14): under “cell-based binding high-content assay, mVISTA, the 16th table, read-out: HC CBA mVISTA IC50”, the IC50 amounted to 6.5 nM. Turning to `CCCCCCN1CC(=O)N[C@@H](Cc2ccc(O)cc2)C(=O)N[C@@H](CCCC)C(=O)N[C@@H](CC(N)=O)C(=O)N[C@@H](CCCNC(=N)N)C(=O)N(C)[C@@H](CCCC)C(=O)N[C@@H](CCCCC)C(=O)N2CCOC[C@H]2C(=O)N[C@@H](C(C)(C)C)C(=O)N[C@@H](CO)C(=O)N[C@H](C(=O)N[C@@H](CC(=O)NCCOCCOCC(=O)NCCCCCCCCCCC(=O)O)C(=O)O)CSCC(=O)N[C@@H](Cc2ccccc2)C(=O)N[C@@H](Cc2c[nH]c3ccccc23)C(=O)N[C@@H](CC(=O)O)C1=O` [Example 2192] ({CH2CO}-FWD[NHexGly]Y[Nle]NR[NMeNle][Ahp(2)][Morpholine(3S-CO)][Tle]SC[βAsp][AEEA][Aun]-OH; thioether N-14), the IC50 (read-out: HC CBA mVISTA IC50) was 18.6 nM. Regarding `CCCCCCN1CC(=O)N[C@@H](Cc2ccc(O)cc2)C(=O)N[C@@H](CCCC)C(=O)NCC(=O)N[C@@H](CCCNC(=N)N)C(=O)N[C@@H](CC(C)C)C(=O)N[C@@H](CCCCC)C(=O)N2CCC[C@H]2C(=O)N[C@@H](C(C)C)C(=O)N[C@@H](CCC(=O)O)C(=O)N[C@H](C(=O)NCC(=O)O)CSCC(=O)N[C@@H](Cc2ccccc2)C(=O)N[C@@H](Cc2ccc(O)cc2)C(=O)N[C@@H](CC(=O)O)C1=O` [Example 1022] ({CH2CO}-FYD[NHexGly]Y[Nle]GRL[Ahp(2)]PVECG-OH; thioether N-14), the IC50 under setting [1] came to 41.5 nM.

Turning to `CCCCCCN1CC(=O)N[C@@H](Cc2ccc(O)cc2)C(=O)N[C@@H](C)C(=O)N[C@@H](CC(N)=O)C(=O)N[C@@H](CCCN)C(=O)N(C)[C@@H](CCCC)C(=O)N[C@@H](CCCCC)C(=O)N2CCC[C@H]2C(=O)N[C@@H](C(C)(C)C)C(=O)N[C@@H](CC(=O)O)C(=O)N[C@H](C(=O)N[C@@H](CC(=O)NCCOCCOCC(=O)N[C@@H](CC(=O)O)C(=O)NCCOCCOCC(=O)NCCCCCCCCCCC(=O)O)C(=O)O)CSCC(=O)N[C@@H](Cc2ccccc2)C(=O)N[C@@H](Cc2c[nH]c3ccccc23)C(=O)N[C@@H](CC(=O)O)C1=O` [compound 2097] ({CH2CO}-FWD[NHexGly]YAN[Orn][NMeNle][Ahp(2)]P[Tle]DC[βAsp][AEEA]D[AEEA][Aun]-OH; thioether N-14), the IC50 (cell-based binding high-content assay, mVISTA, read-out: HC CBA miPrISTA IC50) was 22.2 nM. With `CCCCCCN1CC(=O)N[C@@H](Cc2ccc(O)cc2)C(=O)N[C@@H](CCCCN)C(=O)N[C@@H](CC(=O)O)C(=O)N[C@@H](CCCNC(=N)N)C(=O)N[C@@H](CC(C)C)C(=O)N[C@@H](CCCCC)C(=O)N2CCC[C@H]2C(=O)N[C@@H](C(C)C)C(=O)N[C@@H](CO)C(=O)N[C@H](C(=O)NCC(=O)O)CSCC(=O)N[C@@H](Cc2ccccc2)C(=O)N[C@@H](Cc2ccc(O)cc2)C(=O)N[C@@H](CC(=O)O)C1=O` [Example 1052] ({CH2CO}-FYD[NHexGly]YKDRL[Ahp(2)]PVSCG-OH; thioether N-14), the IC50 under setting [1] amounted to 27.1 nM.
